Measurements reported in ChEMBL document CHEMBL5465560, “Selectivity Literature for EUbOPEN Chemogenomic Library” (2024).
Values belong to the molecule of their own block, whether it stands above or below them.

Assays:
[1] = target: T1, Serine/threonine-protein kinase TNNI3K (Homo sapiens) (UniProt Q59H18); settings: at 10 µM
T1 sequence (whole entry): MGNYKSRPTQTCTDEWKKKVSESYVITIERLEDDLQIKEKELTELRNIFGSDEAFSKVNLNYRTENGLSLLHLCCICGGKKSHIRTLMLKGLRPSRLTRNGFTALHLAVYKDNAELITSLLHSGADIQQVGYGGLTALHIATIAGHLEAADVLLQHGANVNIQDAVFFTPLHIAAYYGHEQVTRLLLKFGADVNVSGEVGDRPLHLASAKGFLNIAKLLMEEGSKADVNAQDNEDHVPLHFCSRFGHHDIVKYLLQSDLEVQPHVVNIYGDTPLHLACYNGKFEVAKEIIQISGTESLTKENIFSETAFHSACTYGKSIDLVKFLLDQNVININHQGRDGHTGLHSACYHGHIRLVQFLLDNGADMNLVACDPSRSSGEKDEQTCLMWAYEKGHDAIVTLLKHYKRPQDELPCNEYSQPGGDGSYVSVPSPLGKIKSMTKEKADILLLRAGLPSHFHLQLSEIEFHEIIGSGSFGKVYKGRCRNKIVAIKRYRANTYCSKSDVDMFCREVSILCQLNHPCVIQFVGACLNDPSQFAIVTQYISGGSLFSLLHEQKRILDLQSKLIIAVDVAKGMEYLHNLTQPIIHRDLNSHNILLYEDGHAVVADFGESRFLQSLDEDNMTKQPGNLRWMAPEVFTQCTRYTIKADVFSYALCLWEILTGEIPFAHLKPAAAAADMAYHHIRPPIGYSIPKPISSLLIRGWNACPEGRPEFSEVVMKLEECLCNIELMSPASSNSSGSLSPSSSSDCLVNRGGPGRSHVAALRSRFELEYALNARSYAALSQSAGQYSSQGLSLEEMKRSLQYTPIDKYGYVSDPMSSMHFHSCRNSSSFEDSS

[2] = target: Protein kinase C beta type (Homo sapiens, UniProt P05771); test: Selectivity interaction (Kinase panel (literature)) EUB0001199aCl PRKCB; settings: at 1 µM
[3] = target: Phosphatidylinositol 4,5-bisphosphate 3-kinase catalytic subunit gamma isoform (Homo sapiens) (UniProt P48736); test: Selectivity interaction (KinomeScan (DiscoverX)) EUB0000045b PIK3CG; settings: at 1 µM
[4] = target: Tyrosine-protein kinase Fyn (Homo sapiens) (UniProt P06241); test: Selectivity interaction (ActivX KiNativ screen (kinase selectivity in THP-1 cell lysates)) EUB0000639a FYN; type: subcellular; settings: lysate, at 0.04 µM
[5] = target: T2, Mitogen-activated protein kinase kinase kinase 15 (Homo sapiens) (UniProt Q6ZN16); test: Selectivity interaction (KinomeScan (DiscoverX)) EUB0001049a MAP3K15; settings: at 1 µM
T2 sequence (whole entry): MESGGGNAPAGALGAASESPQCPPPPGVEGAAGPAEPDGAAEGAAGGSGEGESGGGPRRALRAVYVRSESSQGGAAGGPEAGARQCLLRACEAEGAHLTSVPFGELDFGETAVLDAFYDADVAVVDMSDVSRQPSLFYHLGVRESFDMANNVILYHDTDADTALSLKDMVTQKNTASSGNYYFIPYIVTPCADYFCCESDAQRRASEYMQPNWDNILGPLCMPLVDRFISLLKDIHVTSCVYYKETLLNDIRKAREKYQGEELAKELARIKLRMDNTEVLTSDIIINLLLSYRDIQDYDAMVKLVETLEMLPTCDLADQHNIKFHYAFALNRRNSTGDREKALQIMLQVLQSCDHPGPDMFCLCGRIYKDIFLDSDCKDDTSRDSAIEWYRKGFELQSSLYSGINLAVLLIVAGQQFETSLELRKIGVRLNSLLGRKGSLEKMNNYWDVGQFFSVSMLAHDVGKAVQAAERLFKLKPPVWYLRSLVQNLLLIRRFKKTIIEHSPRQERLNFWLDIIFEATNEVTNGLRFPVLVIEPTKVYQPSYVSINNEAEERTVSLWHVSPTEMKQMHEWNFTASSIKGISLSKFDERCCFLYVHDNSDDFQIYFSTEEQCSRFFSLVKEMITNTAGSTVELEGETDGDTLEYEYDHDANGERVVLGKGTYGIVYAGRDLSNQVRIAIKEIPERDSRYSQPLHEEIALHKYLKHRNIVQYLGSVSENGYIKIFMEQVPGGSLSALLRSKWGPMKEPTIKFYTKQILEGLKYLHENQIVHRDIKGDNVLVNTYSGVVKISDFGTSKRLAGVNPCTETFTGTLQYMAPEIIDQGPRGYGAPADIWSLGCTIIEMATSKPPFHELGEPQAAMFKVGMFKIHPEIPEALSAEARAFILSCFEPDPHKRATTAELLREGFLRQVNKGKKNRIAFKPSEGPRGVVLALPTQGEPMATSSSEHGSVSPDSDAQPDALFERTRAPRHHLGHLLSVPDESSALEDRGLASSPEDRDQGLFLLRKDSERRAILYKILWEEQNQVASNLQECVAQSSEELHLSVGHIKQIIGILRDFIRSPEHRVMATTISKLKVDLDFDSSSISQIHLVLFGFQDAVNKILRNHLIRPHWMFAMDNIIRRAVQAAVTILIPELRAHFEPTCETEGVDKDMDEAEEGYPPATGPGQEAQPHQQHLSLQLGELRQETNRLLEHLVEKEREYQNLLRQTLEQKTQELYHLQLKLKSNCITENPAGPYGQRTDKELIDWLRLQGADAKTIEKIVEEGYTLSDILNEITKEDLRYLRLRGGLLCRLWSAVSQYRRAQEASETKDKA

[6] = target: ALK tyrosine kinase receptor (Homo sapiens, UniProt Q9UM73); test: Selectivity interaction (Kinase panel (33PanQinase(R) Activity Assay)) EUB0000877a ALK
Chain of ALK tyrosine kinase receptor (Q9UM73 whole entry): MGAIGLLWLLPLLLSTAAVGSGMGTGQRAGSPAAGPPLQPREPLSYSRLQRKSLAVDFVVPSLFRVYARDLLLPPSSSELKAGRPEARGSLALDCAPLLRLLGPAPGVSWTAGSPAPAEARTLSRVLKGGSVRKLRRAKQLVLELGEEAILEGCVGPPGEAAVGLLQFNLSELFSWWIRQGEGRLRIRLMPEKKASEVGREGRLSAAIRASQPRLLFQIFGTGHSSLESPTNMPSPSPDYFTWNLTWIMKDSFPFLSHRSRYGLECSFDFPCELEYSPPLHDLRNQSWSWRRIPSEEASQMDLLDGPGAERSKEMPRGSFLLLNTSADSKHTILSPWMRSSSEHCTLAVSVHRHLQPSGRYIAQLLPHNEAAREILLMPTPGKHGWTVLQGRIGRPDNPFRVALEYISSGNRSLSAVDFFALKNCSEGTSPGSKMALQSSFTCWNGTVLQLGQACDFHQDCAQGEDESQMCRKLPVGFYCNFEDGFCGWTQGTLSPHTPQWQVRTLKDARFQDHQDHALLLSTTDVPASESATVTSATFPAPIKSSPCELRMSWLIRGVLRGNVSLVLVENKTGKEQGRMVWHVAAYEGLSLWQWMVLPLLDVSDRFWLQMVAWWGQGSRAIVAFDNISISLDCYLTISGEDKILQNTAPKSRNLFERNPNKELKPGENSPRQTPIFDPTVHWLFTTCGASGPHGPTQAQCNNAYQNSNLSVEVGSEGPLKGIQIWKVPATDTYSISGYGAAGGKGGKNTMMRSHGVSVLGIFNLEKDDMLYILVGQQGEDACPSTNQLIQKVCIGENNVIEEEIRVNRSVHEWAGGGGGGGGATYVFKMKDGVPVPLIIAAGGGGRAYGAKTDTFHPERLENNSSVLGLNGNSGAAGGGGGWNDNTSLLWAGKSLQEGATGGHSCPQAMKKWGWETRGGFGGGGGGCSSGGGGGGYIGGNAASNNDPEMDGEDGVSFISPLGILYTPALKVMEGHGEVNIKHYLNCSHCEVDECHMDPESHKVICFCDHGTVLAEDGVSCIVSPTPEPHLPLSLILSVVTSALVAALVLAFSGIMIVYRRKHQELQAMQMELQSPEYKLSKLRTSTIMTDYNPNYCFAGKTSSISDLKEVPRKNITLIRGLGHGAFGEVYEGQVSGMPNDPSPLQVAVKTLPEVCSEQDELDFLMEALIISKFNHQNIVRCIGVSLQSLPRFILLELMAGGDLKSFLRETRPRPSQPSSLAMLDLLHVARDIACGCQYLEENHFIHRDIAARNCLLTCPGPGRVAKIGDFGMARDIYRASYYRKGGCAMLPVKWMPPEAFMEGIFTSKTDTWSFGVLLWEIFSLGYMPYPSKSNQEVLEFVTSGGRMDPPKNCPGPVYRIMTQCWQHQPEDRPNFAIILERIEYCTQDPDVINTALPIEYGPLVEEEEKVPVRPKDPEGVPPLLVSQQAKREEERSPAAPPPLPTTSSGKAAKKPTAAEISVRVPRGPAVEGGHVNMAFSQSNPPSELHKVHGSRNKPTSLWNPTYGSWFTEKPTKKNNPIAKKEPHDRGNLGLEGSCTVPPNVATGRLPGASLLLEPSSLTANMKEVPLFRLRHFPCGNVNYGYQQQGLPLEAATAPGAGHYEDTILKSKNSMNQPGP

Chain of Protein kinase C beta type (P05771 2-671 limits assumed): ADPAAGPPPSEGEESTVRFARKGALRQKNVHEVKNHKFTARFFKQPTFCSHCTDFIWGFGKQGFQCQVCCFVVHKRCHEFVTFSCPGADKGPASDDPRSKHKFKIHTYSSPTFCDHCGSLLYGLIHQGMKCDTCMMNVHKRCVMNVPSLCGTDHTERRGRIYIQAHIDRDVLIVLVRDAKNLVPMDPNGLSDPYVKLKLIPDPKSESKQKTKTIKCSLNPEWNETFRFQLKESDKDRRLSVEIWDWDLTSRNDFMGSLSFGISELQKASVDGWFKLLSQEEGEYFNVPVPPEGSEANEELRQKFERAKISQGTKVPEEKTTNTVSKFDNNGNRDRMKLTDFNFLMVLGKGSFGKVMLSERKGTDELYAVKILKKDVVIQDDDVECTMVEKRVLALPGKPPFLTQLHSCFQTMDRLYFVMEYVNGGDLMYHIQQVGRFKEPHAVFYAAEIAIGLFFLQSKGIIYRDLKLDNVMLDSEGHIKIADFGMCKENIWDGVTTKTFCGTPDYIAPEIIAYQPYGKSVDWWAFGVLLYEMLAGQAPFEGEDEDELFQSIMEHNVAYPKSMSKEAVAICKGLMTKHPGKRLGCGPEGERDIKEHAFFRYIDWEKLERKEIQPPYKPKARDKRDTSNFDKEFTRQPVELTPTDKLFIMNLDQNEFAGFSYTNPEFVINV
Chain of Tyrosine-protein kinase Fyn (Homo sapiens) (P06241 2-537 limits assumed): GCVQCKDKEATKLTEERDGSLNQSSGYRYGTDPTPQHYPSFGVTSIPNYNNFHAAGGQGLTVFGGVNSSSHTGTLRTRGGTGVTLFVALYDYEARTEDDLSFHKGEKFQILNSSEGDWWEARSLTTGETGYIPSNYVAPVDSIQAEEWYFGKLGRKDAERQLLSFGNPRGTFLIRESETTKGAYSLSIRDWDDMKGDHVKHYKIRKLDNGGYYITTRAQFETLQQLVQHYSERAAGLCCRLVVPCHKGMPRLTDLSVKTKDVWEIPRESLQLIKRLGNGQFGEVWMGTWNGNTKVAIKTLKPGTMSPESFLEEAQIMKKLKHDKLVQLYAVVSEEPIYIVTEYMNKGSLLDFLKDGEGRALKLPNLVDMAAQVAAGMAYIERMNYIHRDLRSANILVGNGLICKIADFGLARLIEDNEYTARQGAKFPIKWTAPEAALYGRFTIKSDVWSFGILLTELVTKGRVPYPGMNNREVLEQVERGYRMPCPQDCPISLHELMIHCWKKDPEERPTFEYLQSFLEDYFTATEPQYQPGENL
Chain of Phosphatidylinositol 4,5-bisphosphate 3-kinase catalytic subunit gamma isoform (Homo sapiens) (P48736 whole entry, looked up, canonical isoform): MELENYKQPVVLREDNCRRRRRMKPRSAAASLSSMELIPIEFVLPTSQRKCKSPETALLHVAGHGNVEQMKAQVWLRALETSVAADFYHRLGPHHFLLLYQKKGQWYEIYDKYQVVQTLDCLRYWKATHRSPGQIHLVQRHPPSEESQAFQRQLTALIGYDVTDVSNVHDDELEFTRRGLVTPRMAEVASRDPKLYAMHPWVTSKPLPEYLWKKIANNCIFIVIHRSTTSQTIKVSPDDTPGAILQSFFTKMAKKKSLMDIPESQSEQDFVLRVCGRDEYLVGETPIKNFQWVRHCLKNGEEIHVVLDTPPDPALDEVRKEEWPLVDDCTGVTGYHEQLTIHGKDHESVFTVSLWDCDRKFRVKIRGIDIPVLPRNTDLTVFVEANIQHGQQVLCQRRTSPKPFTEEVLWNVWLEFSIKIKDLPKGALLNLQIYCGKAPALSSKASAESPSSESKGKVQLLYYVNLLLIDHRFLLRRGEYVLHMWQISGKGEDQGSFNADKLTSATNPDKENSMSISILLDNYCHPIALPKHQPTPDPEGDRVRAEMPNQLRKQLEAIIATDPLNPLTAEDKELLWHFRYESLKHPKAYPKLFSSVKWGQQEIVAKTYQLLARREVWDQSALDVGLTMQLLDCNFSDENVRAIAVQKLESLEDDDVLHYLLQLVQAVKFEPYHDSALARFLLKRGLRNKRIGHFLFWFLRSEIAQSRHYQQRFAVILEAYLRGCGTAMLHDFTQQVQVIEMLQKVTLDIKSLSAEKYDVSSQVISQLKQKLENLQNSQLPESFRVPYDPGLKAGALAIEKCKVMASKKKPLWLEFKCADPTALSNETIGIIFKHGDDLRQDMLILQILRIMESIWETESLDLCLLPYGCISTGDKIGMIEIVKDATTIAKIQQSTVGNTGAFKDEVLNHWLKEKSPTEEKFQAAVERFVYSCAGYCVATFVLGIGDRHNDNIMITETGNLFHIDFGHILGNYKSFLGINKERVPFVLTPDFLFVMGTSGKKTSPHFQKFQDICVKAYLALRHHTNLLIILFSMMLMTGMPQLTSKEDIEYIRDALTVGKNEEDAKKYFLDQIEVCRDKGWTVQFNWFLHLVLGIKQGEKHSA

SMILES: CN1Cc2nccc(-c3cn(C)nc3-c3ccc(F)cc3)c2C1=O
- % of inhibition [2]: -2%

SMILES: C=CC(=O)Nc1cc(-n2c(=O)ccc3cnc4ccc(-c5ccc(NS(C)(=O)=O)cc5)cc4c32)ccc1C
- % of control [3]: 2.8%

SMILES: COc1cc(Nc2nc(C)cc(-c3cnn4nc(OC)ccc34)n2)cc(C(F)(F)F)c1
- % of control [5]: 100%

SMILES: CCC(=O)N1CC[C@H](Nc2ncnc3c2CN(c2cnc(OC)c(C(F)(F)F)c2)CC3)C1 [LENIOLISIB]
- IC50 [6]: > 10 µM

Results, then the molecule that gave them:

- % of control [1]: 100%
SMILES: CCN(CC)CCCCNc1ncc2cc(-c3cc(OC)cc(OC)c3)c(NC(=O)NC(C)(C)C)nc2n1

- % of inhibition [4]: -0.2%
SMILES: CC[C@@H]1[C@H](F)C(=O)N[C@@H]1COc1nccc2cc(C(N)=O)c(OC)cc12 [ZIMLOVISERTIB]
